The structures appear in SMILES notation. Calls of active or inactive are those of the source. The rule behind the calls is not given here.

The values below come from ChEMBL document CHEMBL3271946, “Synthesis and adrenoreceptor blocking action of aziridinium ions derived from phenoxybenzamine and dibenamine” (J Med Chem, 1976).

Data set [1] can be described thus: Half life in 0.025 M NaHCo3 solution assessed as compound cyclization at 5x10'-4 M. The data set is classed as physicochemical.
Data set [2] has as its target T1, Adrenergic receptor alpha (Rattus norvegicus) (UniProt P15823+P23944+P43140+P22086+P19328+P22909). Description: Antagonist activity at alpha-adrenergic receptor in blockade of norepinephrine-induced response in rat vas deferens after 3 mins measured after compound washout. The data set is classed as tissue-based.
Data set [3] concerns the target T1, Adrenergic receptor alpha (Rattus norvegicus). Briefly: Antagonist activity at alpha-adrenergic receptor in blockade of norepinephrine-induced response in rat vas deferens after 3 mins. The data set is classed as tissue-based.
The nature of data set [4]: Half life in 80% aqueous Me2CO solution assessed as compound cyclization at 5x10'-4 M. Particulars: 80% aqueous acetone (Me2CO) solution. The data set is classed as physicochemical.
In data set [5] the test system is Vas deferens. Description: Blockade of serotonin-induced response in rat vas deferens after 3 mins. The data set is classed as functional, tissue-based.
Data set [6] is described as follows: Half life in krebs solution assessed as hydrolysis at 0.003 M at 37 degC. The data set is classed as physicochemical.

On to `Cl.ClCCN(Cc1ccccc1)Cc1ccccc1`, for which the half-life at 500 µM was determined as 6.1 min in data set [1] and 1.6 min in data set [4]. For the same molecule, the inhibition result in data set [2], in data set [3] and in data set [5] was “Active” each time.

As to `CC(COc1ccccc1)[N+]1(Cc2ccccc2)CC1.[O-][Cl+3]([O-])([O-])[O-]` (stereo not drawn), the half-life at 0.003 M in data set [6] came to 19 min. The inhibition entry in data set [2], in data set [3] and in data set [5] was “Active” throughout.

Turning to `[O-][Cl+3]([O-])([O-])[O-].c1ccc(C[N+]2(Cc3ccccc3)CC2)cc1`, in data set [6], the half-life at 0.003 M turned out to be 14 min. Also, the inhibition entry in data set [2], in data set [3] and in data set [5] was “Active” throughout.

Consider `CC(COc1ccccc1)N(CCCl)Cc1ccccc1.Cl` (stereo not drawn) [PHENOXYBENZAMINE HYDROCHLORIDE], for which the values for the half-life at 500 µM in data set [1] and in data set [4] were 2.3 min and 0.61 min, respectively. In addition, the inhibition result in data set [2], in data set [3] and in data set [5] was “Active” in each case.
